Experimental data reported in patent US10647752B2, “Polypeptides capable of inhibiting the binding between leptin and Neuropilin-1” (INSERM (Institut National de la Sante et de la Recherche …, priority 2015, dated 2020).
“Also recorded” adds a separate entry of the source.

Key:
[1] = tested on: Serine/Threonine casein kinase2 (CK2); experiment: CK2 inhibition in breast cancer cell lines: NRP-1 and JAK2 phosphorylation and NRP-1/OBR complex formation; assay type: cell-based; conditions: MDA-MB231 / T47D breast cancer cell lines
[2] = tested on: MDA-MB231 breast cancer cell line; experiment: In vitro cell migration of MDA-MB231 breast cancer cell line; assay type: cell-based, human
NRP-1/OBR complex = NRP-1/OBR complex detection in MDA-MB231 breast cancer cell line by proximity ligation assay (PLA); assay type: cell-based; conditions: MDA-MB231 cultivated in normal human serum, Avastin 40 μg/ml for 48 h, compared to untreated cells
Experimental: NRP-1 and OBR Complex Detection in MBA-MB231 Breast Cancer Cell Line by Immunocytochemistry Using a PLA Technology
The detection of NRP-1/OBR complex in human MDA-MB231 breast cancer cell line was assessed by proximity ligation assay (PLA) or duolink technology (www.olink.com). The detection of the NRP-1/OBR complex was assessed on MDA-MB231 cell line cultivated in normal human serum (human male AB plasma, USA origin, MDL number MFCD00165829 H4522 Sigma) and treated or not with Avastin 40 μg/ml final concentration for 48 h. The goal by using human serum was to mimic a physiologic condition during therapy with Avastin. The immunostained samples were analysed by the acquisition of the Z stacks through confocal microscopy on Zeiss LSM 700, Inverted confocal microscope. The acquired images were analyzed using Image J software for the quantification of NRP-1/OBR complex expressed by cells.

NRP-1 = molecular target: T1, NRP-1 (Homo sapiens, UniProt O14786); experiment: Bio-layer interferometry (BLI) protein:protein interaction with NRP-1; assay type: binding; conditions: for interaction (binding) with NRP-1 by BLI: recombinant proteins, extracellular domain of recombinant NRP-1 for the peptide; for competition between leptin and VEGF for binding to NRP-1: BLI competition experiment
T1 construct: the extracellular domain of the recombinant protein NRP-1 from RnD systems; purchased RnD systems
Experimental: Bio-Layer Interferometry Bio-layer interferometry (BLI) is a label-free technique that is sensitive to an increase of mass bound to the biosensor enabling protein-protein interaction characterization. Ligands preparation: proteins were incubated in a PBS buffer with a 1:3 ratio molar ratio of biotin (biotin-PEG4-NHS from Pierce EZ kit, prepared following the manufacturer's instructions). Free biotin was removed using a desalting column (Pierce). The biotinylated protein (called ligand) was immobilized onto streptavidin biosensor tips and dipped into wells containing the buffer with the analyte of interest (association) or without (dissociation). Experimental conditions were as follow: total volume in each well: 200 μl; shake speed: 1,000 rpm. For simple protein:protein interactions an association phase was followed by a dissociation phase. For competition experiments, the association phase was followed by another association phase with a second analyte instead of a dissociation phase. Sensorgrams were background corrected, smoothed with the Savitzky-Golay algorithm and analyzed using OctetRED instrument software (ForteBio Data Analysis version 7.1). Experimental sensorgrams were first fit to a 1:1 model. The 1:1 model was accepted if the Chi^2 test was below 3 and the R^2 was above 0.9. When the 1:1 model was rejected, the model with the lowest Chi^2 and the highest R^2 was then selected.

Molecule	NRP-1 and JAK2 phosphorylation [1]	formation of the NRP-1/OBR complex [1]	also measured
O=C(O)c1ccc2c(c1)nc(Nc1cccc(Cl)c1)c1ccncc12 [CX4945]	prevented	prevented	–
OC[C@H]1O[C@@H](n2cnc3cc(Cl)c(Cl)cc32)[C@H](O)[C@@H]1O [DRB]	prevented	prevented	–
Brc1c(Br)c(Br)c2n[nH]nc2c1Br [TBB]	prevented	prevented	–
Avastin: Anti-VEGF (bevacizumab) antibody	–	–	cell migration [2]: induces in vitro cell migration; also recorded: increased MDA-MB231 cell migration; number of NRP-1/OBR complex (NRP-1/OBR complex): increase of NRP-1/OBR complex detection; also recorded: high number of NRP-1/OBR complex
ENLRDLLHVLAFSKSCHLPWASGLETL (listed as Homo sapiens) [SEQ ID:3]	–	–	interaction (binding) with NRP-1 by BLI (NRP-1): validated by BLI
VEGF	–	–	competition between leptin and VEGF for binding to NRP-1 (NRP-1): does not prevent leptin binding to NRP-1
leptin: cytokine-like hormone mainly produced by adipocytes; recombinant protein	–	–	competition between leptin and VEGF for binding to NRP-1 (NRP-1): do not compete with VEGF binding; interaction (binding) with NRP-1 by BLI (NRP-1): direct interaction
